From patent publication US11014911B2, “CDK2 inhibitors” (Pfizer Inc., priority 2019, dated 2021)

Key:
[1] = target: CDK2/Cyclin E1 full length (Homo sapiens (Human), UniProt P24941); test: CDK2/Cyclin E1 full length mobility shift assay; assay type: biochemical
GSK3β (H350L) = GSK3β (H350L) (Homo sapiens (Human), UniProt P49841); conditions: read-out: GSK3β Ki
Chain of GSK3β (H350L) (P49841 whole entry, stated change not applied): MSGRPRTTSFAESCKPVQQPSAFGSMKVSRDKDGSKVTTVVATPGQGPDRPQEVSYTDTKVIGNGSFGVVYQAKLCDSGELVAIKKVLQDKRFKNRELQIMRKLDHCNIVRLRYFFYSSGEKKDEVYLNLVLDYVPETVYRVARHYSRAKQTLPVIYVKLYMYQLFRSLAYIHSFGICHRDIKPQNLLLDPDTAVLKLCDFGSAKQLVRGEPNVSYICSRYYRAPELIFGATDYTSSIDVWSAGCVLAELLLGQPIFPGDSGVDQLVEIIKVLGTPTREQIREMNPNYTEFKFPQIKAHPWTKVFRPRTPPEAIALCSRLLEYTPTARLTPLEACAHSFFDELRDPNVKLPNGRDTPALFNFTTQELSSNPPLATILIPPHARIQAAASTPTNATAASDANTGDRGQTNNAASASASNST
Description: The assay was initiated with the addition of ATP, following 15 minutes pre-incubation of enzyme and inhibitor at room temperature in the reaction mixture. The reaction was stopped after 30 minutes at room temperature by the addition of 50 μL of 80 mM EDTA.

Ki [1] [nM] | Ki (GSK3β (H350L)) [nM] | SMILES
1.02 | 107 | CC[C@H](C)NC(=O)O[C@@H]1CC[C@H](c2cc(NC(=O)Cc3cncn3C)n[nH]2)C1 [Example 329, (1R,3S)-3-(3-{[(1-methyl-1H-imidazol-5-yl)acetyl]amino}-1H-pyrazol-5-yl)cyclopentyl (2S)-butan-2-ylcarbamate]
1.55 | 48.6 | CCNC(=O)O[C@@H]1CC[C@H](c2cc(NC(=O)Cc3ccc(OC)cc3)n[nH]2)C1 [Example 230, (1R,3S)-3-(3-{[(4-methoxyphenyl)acetyl]amino}-1H-pyrazol-5-yl)cyclopentyl ethylcarbamate]
0.47 | 6.34 | Cn1ccc(CC(=O)Nc2cc([C@H]3CC[C@@H](OC(=O)N4CCCC4(C)C)C3)[nH]n2)n1 [Example 639, (1R,35)-3-(3-{[(1-methyl-1H-pyrazol-3-yl)acetyl]amino}-1H-pyrazol-5-yl)cyclopentyl 2,2-dimethylpyrrolidine-1-carboxylate]
0.63 | > 191 | CC[C@H](C)NC(=O)O[C@@H]1CC[C@H](c2cc(NC(=O)c3cncn3C)n[nH]2)C1 [Example 321, (1R,3S)-3-(3-{[(1-methyl-1H-imidazol-5-yl)carbonyl]amino}-1H-pyrazol-5-yl)cyclopentyl (2S)-butan-2-ylcarbamate]
0.4 | 10.6 | C[C@H]1CCCN1C(=O)O[C@@H]1CC[C@H](c2cc(NC(=O)Cc3cnco3)n[nH]2)C1 [Example 629, (1R,3S)-3-{3-[(1,3-oxazol-5-ylacetyl)amino]-1H-pyrazol-5-yl}cyclopentyl (2S)-2-methylpyrrolidine-1-carboxylate]
1.44 | 8.58 | C[C@]1(O)CC[C@H](NC(=O)O[C@H]2CC[C@@H](c3cc(NC(=O)Cc4ccccc4)n[nH]3)C2)CC1 [Example 559, (1S,3R)-3-{3-[(phenylacetyl)amino]-1H-pyrazol-5-yl}cyclopentyl (trans-4-hydroxy-4-methylcyclohexyl)carbamate]
0.37 | 10.1 | COc1ccc(CC(=O)Nc2cc([C@@H]3CC[C@H](OC(=O)N[C@H]4CC[C@@](C)(O)CC4)C3)[nH]n2)cc1 [Example 564, (1S,3R)-3-(3-{[(4-methoxyphenyl)acetyl]amino}-1H-pyrazol-5-yl)cyclopentyl (cis-4-hydroxy-4-methylcyclohexyl)carbamate]
0.28 | 4.05 | COc1ccc(CC(=O)Nc2cc([C@H]3CC[C@@H](OC(=O)N4C[C@H](O)[C@H]4C)C3)[nH]n2)cn1 [Example 616, (1R,3S)-3-(3-{[(6-methoxypyridin-3-yl)acetyl]amino}-1H-pyrazol-5-yl)cyclopentyl (2R,3S)-3-hydroxy-2-methylazetidine-1-carboxylate]
0.18 | 69.7 | CC[C@H](C)NC(=O)O[C@@H]1CC[C@H](c2cc(NC(=O)Cc3ccccc3)n[nH]2)C1 [Example 38]
0.39 | 7.32 | Cc1cnc(CC(=O)Nc2cc([C@H]3CC[C@@H](OC(=O)N4CCC4(C)C)C3)[nH]n2)cn1 [Example 601, (1R,3S)-3-(3-{[(5-methylpyrazin-2-yl)acetyl]amino}-1H-pyrazol-5-yl)cyclopentyl 2,2-dimethylazetidine-1-carboxylate]
1.62 | 39.9 | O=C(Cc1ccno1)Nc1cc([C@H]2CC[C@@H](OC(=O)NC3CCCC3)C2)[nH]n1 [Example 460, (1R,3S)-3-{3-[(1,2-oxazol-5-ylacetyl)amino]-1H-pyrazol-5-yl}cyclopentyl cyclopentylcarbamate]
0.49 | 53.1 | COc1ccc(CC(=O)Nc2cc([C@H]3CC[C@@H](OC(=O)NC(C)C)C3)[nH]n2)cc1 [Example 275, (1R,3S)-3-(3-{[(4-methoxyphenyl)acetyl]amino}-1H-pyrazol-5-yl)cyclopentyl propan-2-ylcarbamate]
0.49 | 10.6 | Cc1cc(CC(=O)Nc2cc([C@H]3CC[C@@H](OC(=O)N(C)C(C)C)C3)[nH]n2)on1 [Example 289, (1R,3S)-3-(3-{[(3-methyl-1,2-oxazol-5-yl)acetyl]amino}-1H-pyrazol-5-yl)cyclopentyl methyl(propan-2-yl)carbamate]
0.39 | 32.6 | CC(C)NC(=O)O[C@H]1CC[C@@H](c2cc(NC(=O)Cc3cnn(C)c3)n[nH]2)C1 [Example 266, (1S,3R)-3-(3-{[(1-methyl-1H-pyrazol-4-yl)acetyl]amino}-1H-pyrazol-5-yl)cyclopentyl propan-2-ylcarbamate]
0.09 | 28.1 | C[C@@H](CC(F)(F)F)NC(=O)O[C@@H]1CC[C@H](c2cc(NC(=O)c3cnnn3C)n[nH]2)C1 [Example 91]
2.29 | > 191 | CCCNC(=O)O[C@@H]1CC[C@H](c2cc(NC(=O)c3cc(C)nn3C)n[nH]2)C1 [Example 173, (1R,3S)-3-(3-{[(1,3-dimethyl-1H-pyrazol-5-yl)carbonyl]amino}-1H-pyrazol-5-yl)cyclopentyl propylcarbamate]
0.23 | 7.06 | CC1(C)CCCN1C(=O)O[C@@H]1CC[C@H](c2cc(NC(=O)Cc3cnco3)n[nH]2)C1 [Example 138]
0.11 | 10.2 | CC[C@H](C)NC(=O)O[C@@H]1CC[C@H](c2cc(NC(=O)Cc3ccc4nc(C)cn4n3)n[nH]2)C1 [Example 47]
0.75 | 5.35 | CCN(C)C(=O)O[C@H]1CC[C@@H](c2cc(NC(=O)Cc3ccc(OC)nc3)n[nH]2)C1 [Example 243, (1S,3R)-3-(3-{[(6-methoxypyridin-3-yl)acetyl]amino}-1H-pyrazol-5-yl)cyclopentyl ethyl(methyl)carbamate]
0.1 | 10.4 | CC(C)NC(=O)O[C@@H]1CC[C@H](c2cc(NC(=O)Cc3ccc4c(cnn4C)c3)n[nH]2)C1 [Example 55]
0.64 | 5.23 | CCN(C)C(=O)O[C@@H]1CC[C@H](c2cc(NC(=O)Cc3ccc(C)nc3)n[nH]2)C1 [Example 237, (1R,3S)-3-(3-{[(6-methylpyridin-3-yl)acetyl]amino}-1H-pyrazol-5-yl)cyclopentyl ethyl(methyl)carbamate]
0.18 | 4.5 | O=C(Cc1cc(F)cc(F)c1)Nc1cc([C@@H]2CC[C@H](OC(=O)N[C@H]3CC[C@H](O)CC3)C2)[nH]n1 [Example 28]

SMILES | Ki [1] [nM] | Ki (GSK3β (H350L)) [nM]
CC[C@H](C)NC(=O)O[C@H]1CC[C@@H](c2cc(NC(=O)Cc3ccno3)n[nH]2)C1 [Example 30] | 0.16 | 20.6
COc1ccc(S(C)(=O)=O)c(CC(=O)Nc2cc([C@H]3CC[C@@H](OC(=O)NC4(C)CC4)C3)[nH]n2)c1 [Example 447, (1R,3S)-3-[3-({[5-methoxy-2-(methylsulfonyl)phenyl]acetyl}amino)-1H-pyrazol-5-yl]cyclopentyl (1-methylcyclopropyl)carbamate] | 0.36 | > 47.6
CCNC(=O)O[C@@H]1CC[C@H](c2cc(NC(=O)Cc3ccc4c(cnn4C)c3)n[nH]2)C1 [Example 3, (1R,3S)-3-(3-{[(1-methyl-1H-indazol-5-yl)acetyl]amino}-1H-pyrazol-5-yl)cyclopentyl ethylcarbamate] | 0.34 | 10
CC(C)NC(=O)O[C@H]1CC[C@@H](c2cc(NC(=O)c3cnnn3C)n[nH]2)C1 [Example 261, (1S,3R)-3-(3-{[(1-methyl-1H-1,2,3-triazol-5-yl)carbonyl]amino}-1H-pyrazol-5-yl)cyclopentyl propan-2-ylcarbamate] | 1 | 121
Cc1ccc(CC(=O)Nc2cc([C@@H]3CC[C@H](OC(=O)N[C@H]4CC[C@@H](O)CC4)C3)[nH]n2)nc1 [Example 546, (1S,3R)-3-(3-{[(5-methylpyridin-2-yl)acetyl]amino}-1H-pyrazol-5-yl)cyclopentyl (cis-4-hydroxycyclohexyl)carbamate] | 1.85 | 3.51
C[C@@H](CC(F)(F)F)NC(=O)O[C@@H]1CC[C@H](c2cc(NC(=O)Cc3cnn(C)c3)n[nH]2)C1 [Example 92] | 0.1 | 16.6
CCNC(=O)O[C@@H]1CC[C@H](c2cc(NC(=O)Cc3ccc(OC)nc3)n[nH]2)C1 [Example 231, (1R,3S)-3-(3-{[(6-methoxypyridin-3-yl)acetyl]amino}-1H-pyrazol-5-yl)cyclopentyl ethylcarbamate] | 1.18 | 15.6
Cc1cc(CC(=O)Nc2cc([C@@H]3CC[C@H](OC(=O)N[C@H]4CC[C@@H](O)CC4)C3)[nH]n2)ccn1 [Example 544, (1S,3R)-3-(3-{[(2-methylpyridin-4-yl)acetyl]amino}-1H-pyrazol-5-yl)cyclopentyl (cis-4-hydroxycyclohexyl)carbamate] | 0.54 | 1.96
Cc1cc(CC(=O)Nc2cc([C@@H]3CC[C@H](OC(=O)N[C@H]4CC[C@H](O)CC4)C3)[nH]n2)ccn1 [Example 547, (1S,3R)-3-(3-{[(2-methylpyridin-4-yl)acetyl]amino}-1H-pyrazol-5-yl)cyclopentyl (trans-4-hydroxycyclohexyl)carbamate] | 0.61 | 3.62
Cc1cnc(CC(=O)Nc2cc([C@H]3CC[C@@H](OC(=O)NCCC(F)(F)F)C3)[nH]n2)o1 [Example 218, (1R,3S)-3-(3-{[(5-methyl-1,3-oxazol-2-yl)acetyl]amino}-1H-pyrazol-5-yl)cyclopentyl (3,3,3-trifluoropropyl)carbamate] | 2.09 | 30.6
CC[C@H](C)NC(=O)O[C@@H]1CC[C@H](c2cc(NC(=O)Cc3cccc4c3CN(C)C4=O)n[nH]2)C1 [Example 361, (1R,3S)-3-(3-{[(2-methyl-1-oxo-2,3-dihydro-1H-isoindol-4-yl)acetyl]amino}-1H-pyrazol-5-yl)cyclopentyl (2S)-butan-2-ylcarbamate] | 0.94 | 25.6
CC[C@@H](C)NC(=O)O[C@H]1CC[C@@H](c2cc(NC(=O)Cc3ccno3)n[nH]2)C1 [Example 29] | 0.16 | 19.7
